Experiment in all cases: Measurement of antifungal activity (minimum inhibitory concentration), agar dilution
What all share (format): cell-based

Assay [1] has as its system T. mentagrophytes TIMM1189. Particulars: Sabouraud's agar, one week at 27° C.; for MIC: Trichophyton mentagrophytes, 168 h, read-out: MIC value (minimum compound concentration that definitely inhibited any visible growth). The procedure: (§1) Measurement of Antifungal Activity (Measurement of Minimum Inhibitory Concentration)
(§2) Antifungal activity of representative compounds of the present invention against dermatophytes was investigated.
(§3) Briefly, strains of dermatophytes to be tested were grown on slant media prepared with Sabouraud's agar (product of Nissuiseiyaku; pepton 1.0%, glucose 4.0%, agar 1.5%, pH 5.9) at 27° C. for two weeks, so as to allow sufficient production of conidiospores. Subsequently, sterilized saline solution containing 0.05% (wt/vol) TWEEN 80 was added thereto, and while the surface of the each medium was scraped with a platinum loop, the conidiospores were deaggregated and suspended in the saline solution. The suspension was filtered through a double face sterilized gauze sheet so as to remove agar and hypha pellets. The filtrate was diluted with a saline solution so as to make the concentration of the conidiospores decrease to 10^6/ml by use of a cytometer, and the resultant dilute filtrate served as a test dermatophytes solution. Meanwhile, a stock solution was prepared by adding 1 ml of dimethylsulfoxide to 10 mg of a compound to be tested. An aliquot (500 μl) of the stock solution was combined with dimethylsulfoxide (500 μl), to thereby prepare a 2-fold dilute solution. Dilution was similarly repeated until 13 different dilute solutions ranging from 10 to 0.0025 mg/ml (concentrations of the ultimate test system: 100-0.025 μg/ml) were obtained. 100 μl each of the diluted solutions of the test compound was dispensed into the sterilized petri dish. A Sabouraud's agar (pepton 1.0%, glucose 4.0%, agar 1.5%, pH 5.9; 10 ml), which had been sterilized and dissolved, was added thereto, and the mixture was thoroughly mixed and solidified. Next, the above-prepared test dermatophytes solution was planted in amounts of 5 μl by use of a microplanter.

For assay [2], the system named is T. mentagrophytes IF07552. The settings on record: Sabouraud's agar, one week at 27° C.; for MIC: Trichophyton mentagrophytes, 168 h, read-out: MIC value (minimum compound concentration that definitely inhibited any visible growth). The procedure: as §1, §2, §3
In the next assay the test system is T. violaceum TIMM1264. The settings on record: Sabouraud's agar, one week at 27° C.; for MIC: Trichophyton violaceum, 168 h, read-out: MIC value (minimum compound concentration that definitely inhibited any visible growth). The procedure: as §1, §2, §3
Assay [3] relates to T. mentagrophytes IF05811. Particulars: Sabouraud's agar, one week at 27° C.; for MIC: Trichophyton mentagrophytes, 168 h, read-out: MIC value (minimum compound concentration that definitely inhibited any visible growth). The procedure:
as §1, §2, §3

A further assay deals with M. gypseum IF08231. Particulars: Sabouraud's agar, one week at 27° C.; for MIC: Nannizzia gypsea, 168 h, read-out: MIC value (minimum compound concentration that definitely inhibited any visible growth). The procedure: as §1, §2, §3
A further assay relates to T. rubrum IF09185. Particulars: Sabouraud's agar, one week at 27° C.; for MIC: Trichophyton rubrum, 168 h, read-out: MIC value (minimum compound concentration that definitely inhibited any visible growth). The protocol:
as §1, §2, §3

A further assay has as its system T. rubrum IF05808. The settings on record: Sabouraud's agar, one week at 27° C.; for MIC: Trichophyton rubrum, 168 h, read-out: MIC value (minimum compound concentration that definitely inhibited any visible growth). The procedure:
as §1, §2, §3

The test system of assay [4] is T. mentagrophytes TIMM1177. The settings on record: Sabouraud's agar, one week at 27° C.; for MIC: Trichophyton mentagrophytes, 168 h, read-out: MIC value (minimum compound concentration that definitely inhibited any visible growth). The protocol:
as §1, §2, §3

The subject of another assay is M. canis TIMM0760. The settings on record: Sabouraud's agar, one week at 27° C.; for MIC: Microsporum canis, 168 h, read-out: MIC value (minimum compound concentration that definitely inhibited any visible growth). The protocol: as §1, §2, §3

Read-outs that look alike come from different tables or passages of the source.

For `C/C=C(/C)c1cccc(CN(C)C/C=C/C#CC(C)(C)C)c1.Cl` [Compound 27, trans-, cis-N-(6,6-Dimethyl-2-hepten-4-ynyl)-N-methyl-[3-(1-methyl-1-propenyl)benzyl]amine Hydrochloride], the “MIC value (minimum compound concentration that definitely inhibited any visible growth)” value in assay [1] came out at 1.56 µg/mL; in assay [2] it was 1.56 µg/mL; in the assay on T. violaceum TIMM1264, 1.56 µg/mL; in assay [3] it was 1.56 µg/mL; against M. gypseum IF08231 (H. gypseum IF08231 (Table 1)), 6.25 µg/mL; with T. rubrum IF09185, 1.56 µg/mL. The “MIC value (minimum compound concentration that definitely inhibited any visible growth)” value with T. rubrum IF05808 was found to be 1.56 µg/mL; in assay [4], 1.56 µg/mL; in the assay on M. canis TIMM0760, 0.78 µg/mL.

In the case of `C=C(C)c1cccc(CN(C)Cc2ccc(C(C)(C)C)cc2)c1.Cl` [Compound 77, N-(4-tert-Butylbenzyl)-N-methyl-(3-isopropenylbenzyl)amine Hydrochloride], the MIC stood at 0.2 µg/mL in [1]; 0.1 µg/mL in assay [2]; 0.2 µg/mL with T. violaceum TIMM1264; 0.39 µg/mL in assay [3]; 0.39 µg/mL in the assay with M. gypseum IF08231 (M. gypseum IF08231 (Table 2)); 0.1 µg/mL with T. rubrum IF09185. Also, the values for the MIC (in the assay with T. rubrum IF05808; in [4]; with M. canis TIMM0760) were 0.1 µg/mL, 0.2 µg/mL and 0.2 µg/mL, respectively.

With `C=C(C)c1cc(CN(C)Cc2ccc(C(C)(C)C)cc2)ccc1C.Cl` [Compound 126, N-(4-tert-Butylbenzyl)-N-methyl-(3-isopropenyl-4-methylbenzyl)amine Hydrochloride], the MIC in assay [1] is 3.12 µg/mL; in assay [2] it was 3.12 µg/mL; with T. violaceum TIMM1264, 3.12 µg/mL; in assay [3] it was 12.5 µg/mL; in the assay with M. gypseum IF08231 (M. gypseum IF08231 (Table 2)), 6.25 µg/mL; in the assay with T. rubrum IF09185, 3.12 µg/mL. Further, the MIC was 3.12 µg/mL in the assay on T. rubrum IF05808, 12.5 µg/mL in [4] and 1.56 µg/mL with M. canis TIMM0760.

Regarding `C=C(CC)c1cccc(CN(C)C/C=C/C#CC(C)(C)C)c1.Cl` [Compound 25, trans-N-(6,6-Dimethyl-2-hepten-4-ynyl)-N-methyl-[3-(1-ethylvinyl)benzyl]amine Hydrochloride], the MIC in assay [1] was 0.78 µg/mL; in assay [2], 0.78 µg/mL; with T. violaceum TIMM1264, 0.78 µg/mL; in [3], 0.78 µg/mL; with M. gypseum IF08231 (H. gypseum IF08231 (Table 1)), 3.12 µg/mL; with T. rubrum IF09185 it was 0.78 µg/mL. Besides, the values for the MIC (in the assay with T. rubrum IF05808; in assay [4]; in the assay with M. canis TIMM0760) were 0.78 µg/mL, 0.78 µg/mL and 0.39 µg/mL, respectively.

For `C=C(C)c1cc(C)cc(CN(C)C/C=C/C#CC(C)(C)C)c1.Cl` [Compound 19, trans-N-(6,6-Dimethyl-2-hepten-4-ynyl)-N-methyl-(3-isopropenyl-5-methylbenzyl)amine Hydrochloride], the MIC was determined as 0.05 µg/mL in [1]; 0.05 µg/mL in assay [2]; 0.1 µg/mL in the assay with T. violaceum TIMM1264; 0.1 µg/mL in assay [3]; 0.2 µg/mL in the assay with M. gypseum IF08231 (H. gypseum IF08231 (Table 1)); 0.1 µg/mL in the assay with T. rubrum IF09185. Besides, the MIC (in the assay on T. rubrum IF05808; in assay [4]; in the assay on M. canis TIMM0760) was 0.1 µg/mL each time.

As to `C=C(C)c1cc(CN(C)C/C=C/C#CC(C)(C)C)ccc1C.Cl` [Compound 74, trans-N-(6,6-Dimethyl-2-hepten-4-ynyl)-N-methyl-(3-isopropenyl-4-methylbenzyl)amine Hydrochloride], the MIC turned out to be 6.25 µg/mL in [1]; 12.5 µg/mL in assay [2]; 6.25 µg/mL in the assay with T. violaceum TIMM1264; 6.25 µg/mL in assay [3]; 12.5 µg/mL with M. gypseum IF08231 (H. gypseum IF08231 (Table 1)); 3.12 µg/mL with T. rubrum IF09185. For the same compound, the MIC in the assay on T. rubrum IF05808 was determined as 1.56 µg/mL; in [4], 12.5 µg/mL; in the assay with M. canis TIMM0760, 1.56 µg/mL.

The record behind these values is patent US6586633B1, “Amine derivatives” (Pola Chemical Industries, Inc., priority 2001, dated 2003).
